For orientation: MIC means the least concentration at which growth counts as inhibited.

Here are results for 16 molecules from patent US10464922B2, “Metalloenzyme inhibitor compounds” (NQP 1598 LTD., priority 2015, dated 2019).

One experiment concerns C. albicans (ATCC 90028). The experiment is described as follows: Minimum inhibitory concentration, in vitro broth microdilution assay (CLSI M27-A2). The format is cell-based, Candida albicans. As to conditions: Candida albicans, ATCC90028, 48 h, ATCC 90028; about 50% growth reduction; 2 days at 36° C.; range tested 8-0.0078 μg/mL; values given as ranges; read-out: Candida albicans MIC. As to the method: The antifungal potency of the test compounds was measured using the in vitro broth microdilution assay under assay conditions described by the Clinical and Laboratory Standards Institute (CLSI M27-A2). The test compounds were dissolved in 100% DMSO, suspended completely by sonication or vortexing, diluted by 2-fold serial titrations in the same vehicle, for a total of 11 test concentrations. A 4 μL aliquot of each dilution was added to 196 μL of RPMI-1640+MOPS medium seeded with the C. albicans (ATCC 90028) suspension in wells of a 96 well plate (fungal cell count: 1×10^3 to 1×10^4 colony forming units per mL). The final volume was 200 μL in each well and the final DMSO concentration was 2 percent. The inoculated plates were incubated for 2 days at 36° C. Following incubation, the test plates were visually examined and wells were scored for growth to define the minimum inhibitory concentration. […] Each test substance was evaluated in duplicate. Vehicle-control and an active reference agent (e.g., posaconazole) were used as blank and positive controls, respectively.
Background: Dilution methods test growth across graded concentrations, often in twofold steps.

For another experiment, the system named is A. fumigatus. In words: A. fumigatus MIC at 100% growth inhibition (CLSI M38-A2). Type of experiment: cell-based, Aspergillus fumigatus. As to conditions: 100% growth inhibition, range tested 8-0.0078 μg/mL, values given as ranges; for MIC: Aspergillus fumigatus, read-out: Aspergillus fumigatus MIC. As to the method:
A. fumigatus MICs were determined at 100% growth inhibition following CLSI guidelines at a concentration range of 8-0.0078 μg/mL (CLSI M38-A2).

Structures are written as SMILES. In brackets after ≈: the same amount, converted by molar mass.

As to `N#Cc1ccc(N2CCN(c3ccc(-c4ccc(C(F)(F)[C@](O)(Cn5cnnn5)c5ccc(F)cc5F)nc4)cc3F)CC2)c(F)c1` [Example 9, (R)-4-(4-(4-(6-(2-(2,4-difluorophenyl)-1,1-difluoro-2-hydroxy-3-(1H-tetrazol-1-yl)propyl)pyridin-3-yl)-2-fluorophenyl)piperazin-1-yl)-3-fluorobenzonitrile], the MIC in the experiment on C. albicans (ATCC 90028) was 0.0078 to 0.01 µg/mL (≈ 0.012 to 0.0154 µM); in the experiment on A. fumigatus, more than 8 µg/mL.

Take `N#Cc1ccc(N2CCN(c3ccc(-c4ccc(C(F)(F)[C@](O)(Cn5cnnn5)c5ccc(F)cc5F)nc4)cc3F)CC2)cc1` [Example 10, (R)-4-(4-(4-(6-(2-(2,4-difluorophenyl)-1,1-difluoro-2-hydroxy-3-(1H-tetrazol-1-yl)propyl)pyridin-3-yl)-2-fluorophenyl)piperazin-1-yl) benzonitrile]: the figures for the MIC with C. albicans (ATCC 90028) and with A. fumigatus were 0.0078 to 0.01 µg/mL (≈ 0.0123 to 0.0158 µM) and more than 8 µg/mL, respectively.

For the molecule `N#Cc1ccc(N2CCN(c3ccc(-c4ccc(C(F)(F)[C@](O)(Cn5cnnn5)c5ccc(F)cc5F)nc4)cc3)CC2)c(F)c1` [Example 11, (R)-4-(4-(4-(6-(2-(2,4-difluorophenyl)-1,1-difluoro-2-hydroxy-3-(1H-tetrazol-1-yl)propyl)pyridin-3-yl)phenyl)piperazin-1-yl)-3-fluorobenzonitrile], the figures for the MIC with C. albicans (ATCC 90028) and in the experiment on A. fumigatus were 0.0078 to 0.01 µg/mL (≈ 0.0123 to 0.0158 µM) and 0.25 to 1 µg/mL (≈ 0.395 to 1.58 µM), respectively.

`OC(CC(F)(F)F)c1ccc(N2CCN(c3ccc(-c4ccc(C(F)(F)[C@](O)(Cn5cnnn5)c5ccc(F)cc5F)nc4)cc3)CC2)cn1` (stereo partly drawn) [Example 13, 1-(5-(4-(4-(6-((R)-2-(2,4-difluorophenyl)-1,1-difluoro-2-hydroxy-3-(1H-tetrazol-1-yl)propyl)pyridin-3-yl)phenyl)piperazin-1-yl)pyridin-2-yl)-3,3,3-trifluoropropan-1-ol]: in the experiment on C. albicans (ATCC 90028), the MIC is 0.0078 to 0.01 µg/mL (≈ 0.0111 to 0.0142 µM). The “Aspergillus fumigatus MIC” value in the experiment with A. fumigatus lay within 0.25 to 1.0 µg/mL.

`Nc1ccc(N2CCN(c3ccc(-c4ccc(C(F)(F)[C@](O)(Cn5cnnn5)c5ccc(F)cc5F)nc4)cc3)CC2)cc1` [Example 14, (R)-1-(5-(4-(4-(4-aminophenyl)piperazin-1-yl)phenyl)pyridin-2-yl)-2-(2,4-difluorophenyl)-1,1-difluoro-3-(1H-tetrazol-1-yl) propan-2-ol]: the MIC with C. albicans (ATCC 90028) is 0.01 to 0.1 µg/mL (≈ 0.0165 to 0.165 µM); with A. fumigatus it was more than 8 µg/mL.

As to `OC(c1ccc(N2CCN(c3ccc(-c4ccc(C(F)(F)[C@](O)(Cn5cnnc5)c5ccc(F)cc5F)nc4)cc3)CC2)cc1)C(F)(F)F` (stereo partly drawn) [Example 16, (2R)-2-(2,4-difluorophenyl)-1,1-difluoro-3-(4H-1,2,4-triazol-4-yl)-1-(5-(4-(4-(4-(2,2,2-trifluoro-1-hydroxyethyl)phenyl)piperazin-1-yl)phenyl)pyridin-2-yl) propan-2-ol], the MIC in the experiment with C. albicans (ATCC 90028) lay in the range of 0.0078 to 0.01 µg/mL (≈ 0.0114 to 0.0146 µM); in the experiment with A. fumigatus, 0.25 to 1 µg/mL (≈ 0.364 to 1.46 µM).

Take `N#Cc1ccc(CN2CCN(c3ccc(-c4ccc(C(F)(F)[C@](O)(Cn5cnnn5)c5ccc(F)cc5F)nc4)cc3)CC2)cc1` [Example 17, (R)-4-((4-(4-(6-(2-(2,4-difluorophenyl)-1,1-difluoro-2-hydroxy-3-(1H-tetrazol-1-yl)propyl)pyridin-3-yl)phenyl)piperazin-1-yl)methyl) benzonitrile]: the MIC in the experiment with C. albicans (ATCC 90028) is 0.0078 to 0.01 µg/mL (≈ 0.0124 to 0.0159 µM); in the experiment with A. fumigatus, 1 to 4 µg/mL (≈ 1.59 to 6.36 µM).

For `N#Cc1ccc(N2CCN(Cc3ccc(-c4ccc(C(F)(F)[C@](O)(Cn5cnnn5)c5ccc(F)cc5F)nc4)cc3)CC2)cc1` [Example 18, (R)-4-(4-(4-(6-(2-(2,4-difluorophenyl)-1,1-difluoro-2-hydroxy-3-(1H-tetrazol-1-yl)propyl)pyridin-3-yl)benzyl)piperazin-1-yl) benzonitrile], the values for the MIC in the experiment on C. albicans (ATCC 90028) and in the experiment with A. fumigatus were 0.0078 to 0.01 µg/mL (≈ 0.0124 to 0.0159 µM) and more than 8 µg/mL, respectively.

Regarding `N#Cc1ccc(N2CCN(C(=O)c3ccc(-c4ccc(C(F)(F)[C@](O)(Cn5cnnn5)c5ccc(F)cc5F)nc4)cc3)CC2)cc1` [Example 19, (R)-4-(4-(4-(6-(2-(2,4-difluorophenyl)-1,1-difluoro-2-hydroxy-3-(1H-tetrazol-1-yl)propyl)pyridin-3-yl)benzoyl)piperazin-1-yl) benzonitrile], the MIC in the experiment on C. albicans (ATCC 90028) was 0.0078 to 0.01 µg/mL (≈ 0.0121 to 0.0156 µM); in the experiment on A. fumigatus it was more than 8 µg/mL.

For `CC[C@H](NC(=O)Nc1ccc(N2CCN(c3ccc(-c4ccc(C(F)(F)[C@](O)(Cn5cnnn5)c5ccc(F)cc5F)nc4)cc3)CC2)cc1)[C@H](C)O` [Example 21, 1-(4-(4-(4-(6-((R)-2-(2,4-difluorophenyl)-1,1-difluoro-2-hydroxy-3-(1H-tetrazol-1-yl)propyl)pyridin-3-yl)phenyl)piperazin-1-yl)phenyl)-3-((2S,3S)-2-hydroxypentan-3-yl) urea], the MIC in the experiment with C. albicans (ATCC 90028) is 0.01 to 0.1 µg/mL (≈ 0.0136 to 0.136 µM); in the experiment with A. fumigatus it was 0.25 to 1 µg/mL (≈ 0.341 to 1.36 µM).

Take `N#Cc1ccc(N2CCC(c3ccc(-c4ccc(C(F)(F)[C@](O)(Cn5cnnn5)c5ccc(F)cc5F)nc4)cc3)CC2)cc1` [Example 22, (R)-4-(4-(4-(6-(2-(2,4-difluorophenyl)-1,1-difluoro-2-hydroxy-3-(1H-tetrazol-1-yl)propyl)pyridin-3-yl)phenyl)piperidin-1-yl) benzonitrile]: the MIC fell in the range of 0.0078 to 0.01 µg/mL (≈ 0.0127 to 0.0163 µM) in the experiment with C. albicans (ATCC 90028) and 0.25 to 1 µg/mL (≈ 0.407 to 1.63 µM) with A. fumigatus.

On to `N#Cc1ccc(C(=O)N2CCN(c3ccc(-c4ccc(C(F)(F)[C@](O)(Cn5cnnn5)c5ccc(F)cc5F)nc4)cc3)CC2)cc1` [Example 23, (R)-4-(4-(4-(6-(2-(2,4-difluorophenyl)-1,1-difluoro-2-hydroxy-3-(1H-tetrazol-1-yl)propyl)pyridin-3-yl)phenyl)piperazine-1-carbonyl) benzonitrile], for which the MIC is 0.0078 to 0.01 µg/mL (≈ 0.0121 to 0.0156 µM) in the experiment on C. albicans (ATCC 90028) and more than 8 µg/mL in the experiment with A. fumigatus.

For `N#Cc1ccc(N2CCN(c3ccc(-c4ccc(C(F)(F)[C@](O)(Cn5cnnn5)c5ccc(F)cc5F)nc4)cc3)C(=O)C2)cc1` [Example 24, (R)-4-(4-(4-(6-(2-(2,4-difluorophenyl)-1,1-difluoro-2-hydroxy-3-(1H-tetrazol-1-yl)propyl)pyridin-3-yl)phenyl)-3-oxopiperazin-1-yl) benzonitrile], the MIC is 0.0078 to 0.01 µg/mL (≈ 0.0124 to 0.0159 µM) in the experiment on C. albicans (ATCC 90028) and more than 8 µg/mL in the experiment on A. fumigatus.

Turning to `N#Cc1ccc(N2CCN(c3ccc(-c4ccc(C(F)(F)[C@](O)(Cn5cnnn5)c5ccc(F)cc5F)nc4)cc3)CC2=O)cc1` [Example 25, (R)-4-(4-(4-(6-(2-(2,4-difluorophenyl)-1,1-difluoro-2-hydroxy-3-(1H-tetrazol-1-yl)propyl)pyridin-3-yl)phenyl)-2-oxopiperazin-1-yl) benzonitrile], the minimal inhibitory concentration (MIC) lay in the range of 0.0078 to 0.01 µg/mL (≈ 0.0124 to 0.0159 µM) in the experiment with C. albicans (ATCC 90028) and 0.25 to 1 µg/mL (≈ 0.398 to 1.59 µM) with A. fumigatus.

In the case of `N#Cc1ccc(C2CCN(c3ccc(-c4ccc(C(F)(F)[C@](O)(Cn5cnnn5)c5ccc(F)cc5F)nc4)cc3)CC2)cc1` [Example 26, (R)-4-(1-(4-(6-(2-(2,4-difluorophenyl)-1,1-difluoro-2-hydroxy-3-(1H-tetrazol-1-yl)propyl)pyridin-3-yl)phenyl)piperidin-4-yl) benzonitrile], the MIC with C. albicans (ATCC 90028) fell in the range of 0.0078 to 0.01 µg/mL (≈ 0.0127 to 0.0163 µM); in the experiment with A. fumigatus it was 0.25 to 1 µg/mL (≈ 0.407 to 1.63 µM).

Turning to `N#Cc1ccc(N2CCN(Cc3ccc(-c4ccc(C(F)(F)[C@](O)(Cn5cnnn5)c5ccc(F)cc5F)nc4)cc3)C(=O)C2)cc1` [Example 27, (R)-4-(4-(4-(6-(2-(2,4-difluorophenyl)-1,1-difluoro-2-hydroxy-3-(1H-tetrazol-1-yl)propyl)pyridin-3-yl)benzyl)-3-oxopiperazin-1-yl) benzonitrile], the minimum inhibitory concentration (MIC) was 0.01 to 0.1 µg/mL (≈ 0.0156 to 0.156 µM) in the experiment on C. albicans (ATCC 90028) and more than 8 µg/mL in the experiment with A. fumigatus.
